# Laboratory results: patent publication US20230303598A1, “BIOINSPIRED LIPID DERIVATIVES AND USES THEREOF” (Ohio State Innovation Foundation, priority 2020, published 2023)
# Tested on: Hep3b cells
# Experiment: in vitro mRNA delivery screening of ionizable lipid LNPs with mRNA encoding firefly luciferase
# Assay type: cell-based
# Settings: LNPs of compound/DOPE/cholesterol/PEG-lipid at ratios 20:30:40:0.75, 40:30:40:0.75 and 60:30:40:0.75, Hep3b cells (FIGS. 1-3)
# Source text: FIG. 1 illustrates the results of in vitro mRNA delivery screening of ionizable lipids in Hep3b cells at a ratio of 20:30:40:0.75 (compound/DOPE/cholesterol/PEG-lipid).
# FIG. 2 illustrates the results of in vitro mRNA delivery screening of ionizable lipids in Hep3b cells at a ratio of 40:30:40:0.75 (compound/DOPE/cholesterol/PEG-lipid).
# FIG. 3 illustrates the results of in vitro mRNA delivery screening of ionizable lipids in Hep3b cells at a ratio of 60:30:40:0.75 (compound/DOPE/cholesterol/PEG-lipid).
# Phosphates and phosporamide lipid-like compounds First, forty ionizable lipids were synthesized. Then, these ionizable lipids were formulated with DOPE/cholesterol/PEG-lipid at three different ratios (20:30:40:0.75, 40:30:40:0.75, and 60:30:40:0.75) to prepare lipid nanoparticles (LNPs) and screened in Hep3b cells using mRNA-encoding firefly luciferase.
compound,measurement,value
CCCCCCCC/C=C\CCCCCCCCOP(=O)(OCCCCCCCC/C=C\CCCCCCCC)OCCN(C)C [ZYB20200113-1],mRNA delivery effectiveness,more effective for mRNA delivery than other ionizable lipids
